Source: article PMC5819996 (Cell chemical biology, 2017)

Assays:
MBP-UbiB^CΔ47 = MBP-UbiB^CΔ47 (Escherichia coli, UniProt P0A6A0); assay: malachite green ATPase assay; assay type: biochemical; conditions: 100 μM ATP, 4 mM MgCl2, 1 mM Triton X-100 and 2-alkylphenols, pH 7.5, 30 °C
COQ8A^NΔ250 = COQ8A^NΔ250 (Homo sapiens, UniProt Q8NI60); assay: malachite green ATPase assay; assay type: biochemical; conditions: 100 μM ATP, 4 mM MgCl2, 1 mM Triton X-100 and 2-alkylphenols, pH 7.5, 30 °C
Chain of COQ8A^NΔ250 (Q8NI60 251-647, stated change not applied): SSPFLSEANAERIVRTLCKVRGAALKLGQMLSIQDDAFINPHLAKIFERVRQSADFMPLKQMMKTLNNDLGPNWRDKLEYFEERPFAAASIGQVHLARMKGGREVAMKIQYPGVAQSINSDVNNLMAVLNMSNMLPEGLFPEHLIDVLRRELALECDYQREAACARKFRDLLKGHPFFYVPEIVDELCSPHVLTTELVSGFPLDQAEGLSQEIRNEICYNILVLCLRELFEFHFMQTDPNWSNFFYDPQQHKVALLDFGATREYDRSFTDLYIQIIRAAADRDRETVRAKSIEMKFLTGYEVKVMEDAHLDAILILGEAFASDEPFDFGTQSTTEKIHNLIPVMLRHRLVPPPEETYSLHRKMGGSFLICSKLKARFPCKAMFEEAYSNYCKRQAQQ

Chain of MBP-UbiB^CΔ47 (P0A6A0 1-499, stated change not applied): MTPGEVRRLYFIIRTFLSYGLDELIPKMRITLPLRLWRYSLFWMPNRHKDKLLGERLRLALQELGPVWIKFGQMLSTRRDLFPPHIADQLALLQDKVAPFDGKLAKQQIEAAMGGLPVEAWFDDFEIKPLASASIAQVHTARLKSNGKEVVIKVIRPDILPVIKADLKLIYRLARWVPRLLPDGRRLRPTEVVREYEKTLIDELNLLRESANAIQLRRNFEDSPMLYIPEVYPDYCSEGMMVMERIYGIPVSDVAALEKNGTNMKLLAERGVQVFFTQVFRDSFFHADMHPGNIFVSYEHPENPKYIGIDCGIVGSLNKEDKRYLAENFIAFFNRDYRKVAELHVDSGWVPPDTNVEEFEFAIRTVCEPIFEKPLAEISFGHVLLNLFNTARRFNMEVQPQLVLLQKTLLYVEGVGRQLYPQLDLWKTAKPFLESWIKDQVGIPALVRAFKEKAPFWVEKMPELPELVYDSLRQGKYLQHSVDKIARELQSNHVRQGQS

Nc1ncnc2c1ncn2[C@@H]1O[C@H](COP(=O)(O)OP(=O)(O)OP(=O)(O)O)[C@@H](O)[C@H]1O [ATP]
malachite green ATPase assay (MBP-UbiB^CΔ47): 2-alkylphenols with Triton X-100 increase the ATPase activity of UbiB family members
malachite green ATPase assay (COQ8A^NΔ250): 2-alkylphenols with Triton X-100 increase the ATPase activity of UbiB family members
